Reference: publication PMC4401096 (Scientific Reports, 2015)
Like-named read-outs stand apart in the source and are kept apart here.

Key:
[1] = 3-O-Glucuronide (M-1), TLMs
Protocol: (§1) The standard incubation system for the UGT reaction included HLMs (5 mg of protein/mL), UDPGA (40 mM), Tris-HCl buffer (pH 7.4), MgCl2 (50 mM), 25 μg/mL alamethicin, and substrates in a final volume of 200 μL. The volume of organic solvent was less than 1%. After 60 min of incubation at 37°C, the reaction was terminated by adding 0.1 mL of methanol. The sample was then centrifuged at 20,000 g for 20 minutes to obtain the supernatant for LC-UV-ESI analysis.
(§2) To ensure that less than 10% of the substrate was metabolized in all incubations, different incubation times and protein concentration conditions were selected with 60 min of incubation and 0.15 to 0.75 mg of protein, to confirm the linear interval of metabolite turnover rates. The kinetic models used for analysis were Michaelis–Menten kinetics (eq. 1), biphasic kinetics (eq. 2) and inhibition kinetics (eq. 3)[32]. [drawing 1] [drawing 2] […] Ksi is the constant describing the substrate inhibition interaction. All of the incubations were performed in three independent experiments in duplicate. Kinetic constants were obtained using Origin 7.5 (OriginLab Corp., Northampton, MA) and were reported as the mean ± standard error (S.E.) of the parameter estimate.

[2] = MLMs
Protocol: as §1, §2

[3] = RLMs
Protocol: as §1, §2

[4] = HLMs
Protocol: as §1, §2

[5] = M-2 (16-O-glucuronidation), HIMs
Protocol: as §1, §2

[6] = DLMs
Protocol: as §1, §2

[7] = 16-O-Glucuronide (M-2), PLMs
[8] = Species comparison of DACB glucuronidation in animal liver microsomes; type: in vitro ADME
UGT1A4 = target: T1, UGT1A4 (Homo sapiens, UniProt P22310)
T1 sequence (P22310 29-534): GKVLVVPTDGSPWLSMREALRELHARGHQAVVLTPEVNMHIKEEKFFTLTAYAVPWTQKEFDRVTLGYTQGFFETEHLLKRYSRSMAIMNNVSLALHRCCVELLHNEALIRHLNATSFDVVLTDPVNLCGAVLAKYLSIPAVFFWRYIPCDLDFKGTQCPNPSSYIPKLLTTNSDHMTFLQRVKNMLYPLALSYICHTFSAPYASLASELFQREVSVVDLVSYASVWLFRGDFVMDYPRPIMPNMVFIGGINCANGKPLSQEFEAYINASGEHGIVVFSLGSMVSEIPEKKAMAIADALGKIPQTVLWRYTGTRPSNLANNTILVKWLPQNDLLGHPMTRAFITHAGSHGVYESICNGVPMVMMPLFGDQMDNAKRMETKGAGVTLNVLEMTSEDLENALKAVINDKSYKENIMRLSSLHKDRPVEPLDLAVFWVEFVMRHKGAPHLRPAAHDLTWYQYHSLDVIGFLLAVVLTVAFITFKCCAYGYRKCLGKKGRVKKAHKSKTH
Protocol: (§3) All of the incubations were performed for 60 min using HLMs with a concentration of 0.3 mg of protein/mL, 0.05 mg of protein/mL for UGT1A3 and 0.25 mg of protein/mL for UGT1A4. Similarly, for the UGT1A4 isoform, hecogenin (1–80 μM) was used as a specific inhibitor to determine the differences of inhibition effects between HLMs and UGT1A4.

UGT1A3 = target: T2, UGT1A3 (Homo sapiens, UniProt P35503)
T2 sequence (P35503 29-534): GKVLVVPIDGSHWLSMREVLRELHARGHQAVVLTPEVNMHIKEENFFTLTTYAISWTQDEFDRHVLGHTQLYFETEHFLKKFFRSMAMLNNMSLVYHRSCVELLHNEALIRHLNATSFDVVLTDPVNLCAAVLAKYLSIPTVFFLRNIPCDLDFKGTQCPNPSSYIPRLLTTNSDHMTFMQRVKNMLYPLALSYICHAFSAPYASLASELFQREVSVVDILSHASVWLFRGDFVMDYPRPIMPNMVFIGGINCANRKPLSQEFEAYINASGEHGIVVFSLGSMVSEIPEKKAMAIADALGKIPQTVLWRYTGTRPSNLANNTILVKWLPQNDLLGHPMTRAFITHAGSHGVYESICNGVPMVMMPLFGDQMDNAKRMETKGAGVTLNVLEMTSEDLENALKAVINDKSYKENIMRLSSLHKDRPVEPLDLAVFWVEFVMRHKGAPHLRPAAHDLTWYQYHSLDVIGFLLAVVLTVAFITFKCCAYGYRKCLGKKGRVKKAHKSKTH
Protocol: as §3

[9] = animal species liver microsomes
[10] = liver microsomes of various species

C[C@]12CC[C@H](O)C[C@H]1CC[C@@H]1[C@@H]2CC[C@]2(C)[C@@H](c3ccc(=O)oc3)[C@@H](O)[C@H]3O[C@]132 [DACB, desacetylcinobufagin]
Km [1]: 63.6 ± 5.33 µM
Vmax [1]: 0.106 ± 0.002 nmol/min/mg
Vmax ([2]; 3-O-Glucuronide (M-1)): 0.174 ± 0.008 nmol/min/mg
Vmax ([2]; 16-O-Glucuronide (M-2)): 0.288 ± 0.002 nmol/min/mg
Vmax ([3]; 3-O-Glucuronide (M-1)): 0.107 ± 0.002 nmol/min/mg
Vmax ([3]; 16-O-Glucuronide (M-2)): 0.018 ± 0.001 nmol/min/mg
Vmax ([4]; M-1 (3-O-glucuronidation)): 0.061 ± 0.002 nmol/min/mg
Vmax ([4]; M-2 (16-O-glucuronidation)): 0.074 ± 0.004 nmol/min/mg
Vmax [5]: 0.007 ± 0.002 nmol/min/mg
Vmax ([6]; 3-O-Glucuronide (M-1), biphasic kinetics, first line): 0.005 ± 0.001 nmol/min/mg
Vmax ([6]; 3-O-Glucuronide (M-1), biphasic kinetics, second line): 0.009 ± 0.001 nmol/min/mg
Vmax ([6]; 16-O-Glucuronide (M-2)): 0.111 ± 0.010 nmol/min/mg
Vmax [7]: 0.032 ± 0.001 nmol/min/mg
order of CLint activities of UGT1A3, M-2 formation [8, 9]: MLM > RLM > PLM > DLM
order of UGT1A4 activities by CLint values, M-1 formation [8, 9]: Rabbit > Monkey > Mouse > Dog > Pig
occurrence of 3-O-glucuronidation in species [8, 10]: occurs in DLMs, MLMs, MsLMs, RLMs and TLMs
occurrence of 16-O-glucuronidation in species [8, 10]: can occur in all species except RtLMs

CN1CCN(CCCN2c3ccccc3Sc3ccc(C(F)(F)F)cc32)CC1 [TFP, trifluoperazine]
inhibition of the 3-O-glucuronidation of DACB (UGT1A4): significantly inhibit

CC1(C)[C@@H](O)CC[C@]2(C)[C@H]3C(=O)C=C4[C@@H]5C[C@@](C)(C(=O)O)CC[C@]5(C)CC[C@@]4(C)[C@]3(C)CC[C@@H]12 [glycyrrhetinic acid]
inhibition of the formation of M-2 (16-O-glucuronate) (UGT1A3): significantly inhibited
IC50 values for M-2 formation, UGT1A3 compared with HLMs (UGT1A3; glycyrrhetinic acid 0–60 μM, UGT1A3 and HLMs): equal

hecogenin
inhibition of the 3-O-glucuronidation of DACB (UGT1A4): significantly inhibit
IC50 values for M-1 formation, UGT1A4 compared with HLMs (UGT1A4; hecogenin 1–80 μM, UGT1A4 and HLMs): similar
